Source: the supplement of paper PMC10307832

Columns and labels:
Test in all cases: relative viability (nuclei count vs DMSO), 5 days (fraction); higher = more cells survive
[1] = compound: Cc1cnc(Nc2ccc(OCCN3CCCC3)cc2)nc1Nc1cccc(S(=O)(=O)NC(C)(C)C)c1 [Fedratinib] + CC(C)C[C@H](NC(=O)[C@H](Cc1ccccc1)NC(=O)c1cnccn1)B(O)O [Bortezomib] (partner 0.002 µM)
Procedure, shortened: (§1)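 Five library-drug doses in √10 steps were combined with a fixed anchor-drug dose, or a single drug was given alone, by pin tool to lung cancer cell lines in 1536-well plates the day after seeding. Nuclei were stained and counted after 5 days. Relative viability is the nuclei count in treated wells over that in vehicle wells, taken as the median of duplicate plates.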

[2] = compound: Cc1cnc(Nc2ccc(OCCN3CCCC3)cc2)nc1Nc1cccc(S(=O)(=O)NC(C)(C)C)c1 [Fedratinib] + CS(=O)(=O)CCNCc1ccc(-c2ccc3ncnc(Nc4ccc(OCc5cccc(F)c5)c(Cl)c4)c3c2)o1 [Lapatinib] (partner 2 µM)
Procedure, shortened: as §1

[3] = compound: COC1=CC=C(C=C1)COC2=C(C=C(C=C2)CC3=CN=C(N=C3N)N)OC [GW-2580] + Nc1nc2[nH]cc(CCc3ccc(C(=O)N[C@@H](CCC(=O)O)C(=O)O)cc3)c2c(=O)[nH]1 [Pemetrexed] (partner 0.2 µM)
Procedure, shortened: as §1

[4] = compound: Cc1cnc(Nc2ccc(OCCN3CCCC3)cc2)nc1Nc1cccc(S(=O)(=O)NC(C)(C)C)c1 [Fedratinib] + CS(=O)(=O)N1CCN(Cc2cc3nc(-c4cccc5[nH]ncc45)nc(N4CCOCC4)c3s2)CC1 [Pictilisib] (partner 1 µM)
Procedure, shortened: as §1

[5] = compound: COC1=CC=C(C=C1)COC2=C(C=C(C=C2)CC3=CN=C(N=C3N)N)OC [GW-2580] + O=C(c1cc(Cc2n[nH]c(=O)c3ccccc23)ccc1F)N1CCN(C(=O)C2CC2)CC1 [Olaparib] (partner 8 µM)
Procedure, shortened: as §1

Cell Line	relative viability ([1]; first compound 0.1 µM)	relative viability ([1]; first compound 0.3162 µM)	relative viability ([1]; first compound 1 µM)	relative viability ([2]; first compound 0.1 µM)	relative viability ([2]; first compound 0.3162 µM)	relative viability ([2]; first compound 1 µM)	relative viability ([3]; first compound 0.08 µM)	relative viability ([3]; first compound 0.8 µM)	relative viability ([3]; first compound 2.53 µM)	relative viability ([3]; first compound 8 µM)	relative viability ([4]; first compound 0.1 µM)	relative viability ([4]; first compound 0.3162 µM)	relative viability ([4]; first compound 1 µM)	relative viability ([5]; first compound 0.08 µM)	relative viability ([5]; first compound 0.8 µM)	relative viability ([5]; first compound 2.53 µM)	relative viability ([5]; first compound 8 µM)
HCC-366	1.22	1	0.174	1.34	0.989	0.304	0.194	0.145	0.16	0.121	0.136	0.0976	0.19	0.379	0.526	0.387	0.417
HCC-827	1.09	1.03	1.03	0.187	0.181	0.22	0.242	0.259	0.236	0.276	0.99	0.927	0.941	0.692	0.642	0.632	0.617
HOP-62	1.01	0.92	0.785	0.969	0.88	0.904	0.394	0.285	0.303	0.288	0.809	0.709	0.531	0.512	0.809	0.179	0.402
LC-2-ad	1.04	0.96	0.0819	1.06	0.983	0.104	0.268	0.285	0.253	0.278	0.422	0.531	0.115	0.723	0.727	0.702	0.722
LCLC-97TM1	0.636	0.527	0.228	1.14	0.711	0.938	0.158	0.143	0.179	0.172	0.196	0.169	0.15	0.379	0.579	0.313	0.428
LOU-NH91	0.449	0.526	0.468	0.732	0.798	0.638	0.349	0.381	0.399	0.412	0.432	0.53	0.516	0.916	0.946	0.897	0.98
LU99A	1.12	1.14	0.466	1.08	0.988	0.321	0.246	0.176	0.193	0.17	0.325	0.369	0.217	0.259	0.264	0.261	0.269
LXF-289	1.02	0.978	0.78	0.894	0.883	0.737	0.883	0.96	0.881	0.85	0.811	0.747	0.694	1.24	1.14	1.06	1.19
NCI-H23	0.946	0.943	0.173	1.23	1.03	0.319	0.581	0.869	0.777	0.492	0.428	0.619	0.156	0.329	0.329	0.321	0.273
NCI-H322M	1.19	1.16	1.06	0.608	0.615	0.523	0.582	0.626	0.676	0.567	0.5	0.503	0.406	0.76	0.956	0.753	0.626
NCI-H460	1.84	1.13	1.04	1.45	0.956	0.855	0.0622	0.0626	0.0647	0.0595	0.354	0.316	0.295	0.379	0.508	0.516	0.353
NCI-H520	0.524	0.711	0.173	0.86	0.717	0.18	0.7	0.579	0.598	0.554	0.267	0.315	0.215	0.3	0.416	0.337	0.342
NCI-H596	1.01	1.21	0.919	0.961	1.07	0.829	0.44	0.502	0.562	0.512	0.342	0.388	0.366	0.8	0.746	0.715	0.651
NCI-H647	0.976	1.16	0.395	1.22	1.12	0.173	0.16	0.185	0.16	0.229	0.377	0.477	0.309	0.776	0.667	0.444	0.71
NCI-H650	–	0.84	0.77	–	1.07	0.347	1.04	1.11	0.792	0.855	–	0.701	0.727	0.373	0.379	0.364	0.472
NCI-H661	0.81	0.894	0.9	0.471	0.496	0.44	1.04	0.901	0.957	0.782	0.404	0.355	0.329	0.807	0.813	0.722	0.665
NCI-H838	0.588	0.808	0.208	0.875	1.02	0.205	0.268	0.262	0.234	0.266	0.449	0.47	0.213	0.906	0.938	0.838	0.94
NCI-H1355	1.21	1.24	1.09	0.734	1.04	0.962	1.09	1.13	0.914	0.965	0.366	0.437	0.382	0.804	0.836	0.669	0.691

Cell Line	relative viability ([1]; first compound 0.1 µM)	relative viability ([1]; first compound 0.3162 µM)	relative viability ([1]; first compound 1 µM)	relative viability ([2]; first compound 0.1 µM)	relative viability ([2]; first compound 0.3162 µM)	relative viability ([2]; first compound 1 µM)	relative viability ([3]; first compound 0.08 µM)	relative viability ([3]; first compound 0.8 µM)	relative viability ([3]; first compound 2.53 µM)	relative viability ([3]; first compound 8 µM)	relative viability ([4]; first compound 0.1 µM)	relative viability ([4]; first compound 0.3162 µM)	relative viability ([4]; first compound 1 µM)	relative viability ([5]; first compound 0.08 µM)	relative viability ([5]; first compound 0.8 µM)	relative viability ([5]; first compound 2.53 µM)	relative viability ([5]; first compound 8 µM)
NCI-H1437	0.432	0.473	0.191	0.821	0.827	0.19	0.297	0.307	0.299	0.273	0.339	0.528	0.119	0.672	0.662	0.631	0.602
NCI-H1650	0.199	0.221	0.193	0.548	0.925	0.183	0.468	0.391	0.418	0.371	0.355	0.571	0.155	0.704	0.951	0.719	0.774
NCI-H1651	0.965	0.951	0.871	0.817	0.813	0.118	0.605	0.711	0.578	0.45	0.566	0.591	0.0696	0.175	0.183	0.196	0.197
NCI-H1666	0.649	0.944	0.276	0.503	0.671	0.258	0.863	0.91	0.901	0.787	0.409	0.38	0.224	0.758	0.757	0.794	0.737
NCI-H1734	1.06	0.856	0.231	1.18	1.1	0.183	0.404	0.409	0.425	0.408	0.443	0.479	0.142	0.65	0.589	0.585	0.636
NCI-H1755	0.938	0.92	0.903	1.02	1	0.942	0.677	0.474	0.429	0.43	0.385	0.458	0.399	0.984	0.905	0.737	0.785
NCI-H1792	1.14	0.994	0.887	0.879	0.905	0.827	0.843	0.773	0.688	0.644	0.257	0.289	0.227	0.596	0.929	0.255	0.44
NCI-H1915	0.986	0.872	0.662	0.891	0.985	0.662	0.519	0.53	0.509	0.486	0.927	0.9	0.405	0.222	0.233	0.293	0.259
NCI-H1975	0.388	0.405	0.163	1.02	0.922	0.163	0.311	0.309	0.323	0.309	0.301	0.315	0.15	0.815	0.864	0.874	0.806
NCI-H1993	0.993	0.979	0.48	0.725	0.82	0.608	0.601	0.703	0.54	0.576	0.779	0.872	0.771	0.985	1.07	1.06	1.04
NCI-H2009	0.99	1.11	0.131	0.915	1.02	0.171	1.06	1.11	0.945	0.843	0.699	0.919	0.143	0.752	0.698	0.918	0.645
NCI-H2023	1.08	0.95	0.0957	0.897	0.75	0.083	0.344	0.279	0.238	0.205	0.245	0.246	0.0814	0.541	0.589	0.457	0.511
NCI-H2085	1.04	1.09	0.416	0.709	0.766	0.538	0.963	1.01	0.885	0.838	0.361	0.442	0.375	0.741	0.784	0.84	0.757
NCI-H2087	0.806	0.754	0.259	1.25	1.31	0.303	0.68	0.713	0.7	0.625	0.705	1	0.27	0.668	0.934	0.608	0.542
NCI-H2126	1.08	1.12	1.07	0.761	0.772	0.689	0.664	0.709	0.63	0.612	0.489	0.514	0.391	1.02	0.942	0.793	0.851
NCI-H2228	1.35	0.866	0.408	1.04	1.07	0.22	0.408	0.306	0.338	0.327	0.363	0.432	0.127	0.667	0.828	0.785	0.635
NCI-H2347	0.82	0.874	0.722	1.03	0.998	0.882	0.468	0.473	0.464	0.446	0.584	0.513	0.561	0.538	0.616	0.54	0.595
NCI-H2405	1.05	0.77	0.957	0.91	1.07	0.753	1.04	1.2	1.02	0.799	0.338	0.443	0.34	0.911	0.981	0.797	0.712
